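Test compounds were applied to cells in 96-well plates for 48 hours at 5 doses. GI50 = concentration required for 50% inhibition of growth.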 Active and inactive are the calls of the source. Cut-off read from the data, not from the text of the source: active = GI50 up to about 1.1 µM and inactive = higher.
Experiments:
Test in all cases: DTP human tumour cell line panel, 48 h
Malme-3M = tested on: Malme-3M
EKVX = tested on: EKVX
SK-MEL-2 = tested on: SK-MEL-2
K562 = tested on: K562
TK-10 = tested on: TK-10
T47D = tested on: T47D
HCT-116 = tested on: HCT-116
OVCAR-5 = tested on: OVCAR-5
MDA-N = tested on: MDA-N
NCI-H23 = tested on: NCI-H23
LOX IMVI = tested on: LOX IMVI
NCI-H226 = tested on: NCI-H226
NCI-H460 = tested on: NCI-H460
KM12 = tested on: KM12
OVCAR-8 = tested on: OVCAR-8
SW-620 = tested on: SW-620
CCRF-CEM = tested on: CCRF-CEM
UO-31 = tested on: UO-31
SK-MEL-5 = tested on: SK-MEL-5
BT-549 = tested on: BT-549
ACHN = tested on: ACHN
RXF 393 = tested on: RXF 393
COLO 205 = tested on: COLO 205
OVCAR-3 = tested on: OVCAR-3
NCI/ADR-RES = tested on: NCI/ADR-RES
786-0 = tested on: 786-0
SN12C = tested on: SN12C
SNB-75 = tested on: SNB-75
MDA-MB-231 = tested on: MDA-MB-231
HL-60 = tested on: HL-60
CAKI-1 = tested on: CAKI-1
HCT-15 = tested on: HCT-15
SF-539 = tested on: SF-539
SF-295 = tested on: SF-295
MCF7 = tested on: MCF7
SK-MEL-28 = tested on: SK-MEL-28
MOLT-4 = tested on: MOLT-4
SK-OV-3 = tested on: SK-OV-3
OVCAR-4 = tested on: OVCAR-4
U-251 = tested on: U-251
SNB-19 = tested on: SNB-19
HOP-92 = tested on: HOP-92
PC-3 = tested on: PC-3
MDA-MB-435 = tested on: MDA-MB-435
SF-268 = tested on: SF-268
HT-29 = tested on: HT-29
SR = tested on: SR
UACC-62 = tested on: UACC-62
HOP-62 = tested on: HOP-62
RPMI-8226 = tested on: RPMI-8226
NCI-H522 = tested on: NCI-H522
Hs-578T = tested on: Hs-578T
M14 = tested on: M14
A498 = tested on: A498
DU-145 = tested on: DU-145
HCC 2998 = tested on: HCC 2998
A549 = tested on: A549
UACC-257 = tested on: UACC-257

CCOC(=O)NC(Nc1ccc(F)cc1)(C(=O)OCC)C(F)(F)F (stereo unspecified)
GI50 (Malme-3M): > 100 µM (inactive) | GI50 (EKVX): > 100 µM (inactive) | GI50 (SK-MEL-2): 0.982 µM (active) | GI50 (K562): < 0.0307 µM (active) | GI50 (TK-10): > 24.7 µM (inactive) | GI50 (T47D): 3.72 µM (inactive) | GI50 (HCT-116): 3.12 µM (inactive) | GI50 (OVCAR-5): > 100 µM (inactive) | GI50 (MDA-N): > 62.1 µM (inactive) | GI50 (NCI-H23): > 100 µM (inactive) | GI50 (LOX IMVI): 0.153 µM (active) | GI50 (NCI-H226): > 100 µM (inactive) | GI50 (NCI-H460): > 21.7 µM (inactive) | GI50 (KM12): 0.556 µM (active) | GI50 (OVCAR-8): 7.06 µM (inactive) | GI50 (SW-620): 1.22 µM (inactive) | GI50 (CCRF-CEM): 3.28 µM (inactive) | GI50 (UO-31): 8.59 µM (inactive) | GI50 (SK-MEL-5): 0.192 µM (active) | GI50 (BT-549): > 100 µM (inactive) | GI50 (ACHN): 2.62 µM (inactive) | GI50 (RXF 393): > 100 µM (inactive) | GI50 (COLO 205): > 26 µM (inactive) | GI50 (OVCAR-3): > 100 µM (inactive) | GI50 (NCI/ADR-RES): 12 µM (inactive) | GI50 (786-0): > 100 µM (inactive) | GI50 (SN12C): > 100 µM (inactive) | GI50 (SNB-75): > 100 µM (inactive) | GI50 (MDA-MB-231): > 100 µM (inactive) | GI50 (HL-60): 0.526 µM (active) | GI50 (CAKI-1): > 100 µM (inactive) | GI50 (HCT-15): 29.6 µM | GI50 (SF-539): > 100 µM (inactive) | GI50 (SF-295): 8.38 µM (inactive) | GI50 (MCF7): > 66.7 µM (inactive) | GI50 (SK-MEL-28): > 88.5 µM (inactive) | GI50 (MOLT-4): 6.71 µM (inactive) | GI50 (SK-OV-3): > 100 µM (inactive) | GI50 (OVCAR-4): > 50.8 µM (inactive) | GI50 (U-251): > 100 µM (inactive) | GI50 (SNB-19): > 100 µM (inactive) | GI50 (HOP-92): > 100 µM (inactive) | GI50 (PC-3): 4.15 µM (inactive) | GI50 (MDA-MB-435): 0.268 µM (active) | GI50 (SF-268): > 100 µM (inactive) | GI50 (HT-29): > 100 µM (inactive) | GI50 (SR): > 100 µM (inactive) | GI50 (UACC-62): 0.121 µM (active) | GI50 (HOP-62): > 100 µM (inactive) | GI50 (RPMI-8226): 2.65 µM (inactive) | GI50 (NCI-H522): > 100 µM (inactive) | GI50 (Hs-578T): > 100 µM (inactive) | GI50 (M14): 0.156 µM (active) | GI50 (A498): > 100 µM (inactive) | GI50 (DU-145): > 21.5 µM (inactive) | GI50 (HCC 2998): > 100 µM (inactive) | GI50 (A549): 10.5 µM (inactive) | GI50 (UACC-257): 3.47 µM (inactive)

CCOC(=O)c1c(N2CCCC2)[nH]c(=O)c(C(c2ccco2)c2c(O)c(C(=O)OCC)c(N3CCCC3)[nH]c2=O)c1O
GI50 (Malme-3M): > 100 µM (inactive) | GI50 (EKVX): > 100 µM (inactive) | GI50 (SK-MEL-2): > 100 µM (inactive) | GI50 (K562): > 100 µM (inactive) | GI50 (TK-10): > 100 µM (inactive) | GI50 (T47D): 19.4 µM (inactive) | GI50 (HCT-116): > 100 µM (inactive) | GI50 (OVCAR-5): 67.9 µM (inactive) | GI50 (MDA-N): > 100 µM (inactive) | GI50 (NCI-H23): > 100 µM (inactive) | GI50 (LOX IMVI): 37.4 µM (inactive) | GI50 (NCI-H226): > 100 µM (inactive) | GI50 (NCI-H460): > 100 µM (inactive) | GI50 (KM12): > 100 µM (inactive) | GI50 (OVCAR-8): 92.9 µM (inactive) | GI50 (SW-620): > 100 µM (inactive) | GI50 (CCRF-CEM): > 100 µM (inactive) | GI50 (UO-31): > 100 µM (inactive) | GI50 (SK-MEL-5): 82.6 µM (inactive) | GI50 (BT-549): > 100 µM (inactive) | GI50 (ACHN): 95.5 µM (inactive) | GI50 (RXF 393): 54.5 µM (inactive) | GI50 (COLO 205): > 100 µM (inactive) | GI50 (OVCAR-3): > 100 µM (inactive) | GI50 (NCI/ADR-RES): > 100 µM (inactive) | GI50 (786-0): 29.2 µM (inactive) | GI50 (SN12C): > 100 µM (inactive) | GI50 (SNB-75): 23.4 µM (inactive) | GI50 (MDA-MB-231): > 100 µM (inactive) | GI50 (HL-60): > 100 µM (inactive) | GI50 (CAKI-1): > 100 µM (inactive) | GI50 (HCT-15): > 100 µM | GI50 (SF-539): > 100 µM (inactive) | GI50 (SF-295): 40.3 µM (inactive) | GI50 (MCF7): > 100 µM (inactive) | GI50 (SK-MEL-28): > 100 µM (inactive) | GI50 (MOLT-4): > 100 µM (inactive) | GI50 (SK-OV-3): > 100 µM (inactive) | GI50 (OVCAR-4): > 100 µM (inactive) | GI50 (U-251): 73.8 µM (inactive) | GI50 (SNB-19): 38.7 µM (inactive) | GI50 (HOP-92): > 100 µM (inactive) | GI50 (PC-3): > 100 µM (inactive) | GI50 (MDA-MB-435): > 100 µM (inactive) | GI50 (SF-268): 85.3 µM (inactive) | GI50 (HT-29): > 100 µM (inactive) | GI50 (SR): > 100 µM (inactive) | GI50 (UACC-62): > 100 µM (inactive) | GI50 (HOP-62): 50.6 µM (inactive) | GI50 (RPMI-8226): 84.3 µM (inactive) | GI50 (NCI-H522): 84.9 µM (inactive) | GI50 (Hs-578T): 27.9 µM (inactive) | GI50 (M14): > 100 µM (inactive) | GI50 (A498): > 100 µM (inactive) | GI50 (DU-145): > 100 µM (inactive) | GI50 (HCC 2998): > 100 µM (inactive) | GI50 (A549): > 100 µM (inactive) | GI50 (UACC-257): > 100 µM (inactive)
